Literature values, collected in patent publication US6814987B2, “Compositions and methods of use for extracts of magnoliaceae plants” (NPI, LLC., priority 2000, dated 2004).
Like-named read-outs stand apart in the source and are kept apart here.

| SMILES | duration of muscle relaxing effect (250 mg/kg) [h] | observed effect (500 mg/kg) | observed effects (mice; 63 mg/kg intraperitoneally) | duration of effects after injection (mice; 125 mg/kg) [h] | observed effects (mice; 125 mg/kg) | duration of muscle relaxation (mice; 250 mg/kg) | time to ataxia (mice; 250 mg/kg) [min] | time to loss of righting reflex (mice; 250 mg/kg) [min] |
| --- | --- | --- | --- | --- | --- | --- | --- | --- |
| C=CCc1ccc(O)c(-c2ccc(O)c(CC=C)c2)c1 [honokiol] | 3 | loss of righting reflex | – | – | – | – | – | – |
| C=CCc1ccc(O)c(-c2cc(CC=C)ccc2O)c1 [magnolol] | – | – | hypomotility, ptosis, and sedation | 2 | sedation, ataxia, and prominent muscle relaxation | over 3 hr | ≤ 10 | 40 |
